According to ChEMBL document CHEMBL3044822, “Carpropamid, a New Fungicide for Rice Blast Control” (1998):

Each compound was assayed on Pyricularia oryzae (assay: Fungicidal activity against Magnaporthe oryzae in 7 days old young rice seedlings compound sprayed 1 day after inoculation assessed as efficacy against blast disease measured as lesion level at 200 ppm measured after 7 days of inoculation).
Type: functional

Structure (SMILES)	Efficacy [%]
CC(NC(=O)C1(C(C)C)CC1(Cl)Cl)c1ccc(Cl)cc1 (stereo not drawn)	0
CC1(C)C(C(=O)O)C1(Cl)Cl (stereo not drawn)	<5
CCOC(=O)C1C(C)(C)C1(Cl)Cl (stereo not drawn)	<5
CC1(C)C(C(=O)Oc2ccccc2)C1(Cl)Cl (stereo not drawn)	<20
CC1(C)C(Cl)(Cl)C1(C)C(=O)O (stereo not drawn)	<20
CCC1(CC)C(C(=O)O)C1(Cl)Cl (stereo not drawn)	<30
CC1(C)C(C#N)C1(Cl)Cl (stereo not drawn)	<30
CC1(C)C(CO)C1(Cl)Cl (stereo not drawn)	<5
CC1(C)C(COC(=O)c2ccccc2)C1(Cl)Cl (stereo not drawn)	<5
CC1(C)C(COC(=O)Nc2ccccc2)C1(Cl)Cl (stereo not drawn)	<5
CC1(C)C(C(N)=O)C1(Cl)Cl (stereo not drawn)	<20
CNC(=O)C1C(C)(C)C1(Cl)Cl (stereo not drawn)	<40
CC1(C)C(C(=O)Nc2ccccc2)C1(Cl)Cl (stereo not drawn)	>40
CC(NC(=O)C1(C)C(C)(C)C1(Cl)Cl)c1ccccc1 (stereo not drawn)	<5
CC(NC(=O)C1(C)C(C)(C)C1(Cl)Cl)c1ccc(Cl)cc1 (stereo not drawn)	0
CC(NC(=O)C1(C)C(C)(C)C1(Cl)Cl)c1ccc(Br)cc1 (stereo not drawn)	0
CC[C@]1(C(=O)NC(C)c2ccc(Cl)cc2)[C@H](C)C1(Cl)Cl (stereo partly drawn) [CARPROPAMID]	0

What follows are compounds tested on Pyricularia oryzae (assay: Fungicidal activity against Magnaporthe oryzae in 7 days old young rice seedlings compound sprayed 1 day after inoculation assessed as efficacy against blast disease measured as lesion level at 50 ppm measured after 7 days of inoculation).
Type: functional

Structure (SMILES)	Efficacy [%]
CC(NC(=O)C1(C)C(C)(C)C1(Cl)Cl)c1ccc(Br)cc1 (stereo not drawn)	0
CC[C@]1(C(=O)NC(C)c2ccc(Cl)cc2)[C@H](C)C1(Cl)Cl (mixture of isomers) [CARPROPAMID]	0
C[C@@H](NC(=O)C1(C)C(C)(C)C1(Cl)Cl)c1ccc(Br)cc1 (stereo in doubt; 17(Rd))	0
C[C@@H](NC(=O)C1(C)C(C)(C)C1(Cl)Cl)c1ccc(Br)cc1 (stereo in doubt; 17(Rl))	<5
C[C@H](NC(=O)C1(C)C(C)(C)C1(Cl)Cl)c1ccc(Br)cc1 (stereo in doubt; 17(Sl))	<20
CC[C@]1(C(=O)N[C@H](C)c2ccc(Cl)cc2)[C@H](C)C1(Cl)Cl [trans-Carpropamid]	0
